{"source": "patent US11246893B2", "about": "“Bacteriocin production, compositions and methods of use” (ISOThrive Inc., priority 2016, dated 2022)", "key": {"[1]": {"system": "Weissella viridescens NRRL B-1951", "experiment": "HPLC of tube supernatants: glucose consumption and organic acid production", "format": "cell-based", "settings": "for acetic acid in fermentation media: MRS media originally contained 7% acetate", "protocol": "Each tube was sampled (1.5 mL conical polypropylene centrifuge tubes) and centrifuged at 10 kRPM for 10 minutes to remove and suspended cells. The resulting supernatants were filtered (0.2 μm nylon), diluted to 0.5% solids, and analyzed by high pressure liquid chromatography (HPLC, Agilent 1100, refractive index detector and BioRad Ainex HPX-87H column) for consumption of glucose and production of organic acids.\nNote that the MRS media originally contained 7% acetate; therefore 7% should be subtracted from the values for acetate in Table 8 to ascertain the amount of acetate generated during the assay."}, "[2]": {"system": "Weissella viridescens NRRL B-1951", "experiment": "tube assay, W. viridescens growth with nisin A or Z (absorbance)", "format": "cell-based", "settings": "15 Hr", "protocol": "100 g De-Man, Rogosa and Sharpe (MRS) media was prepared in a 500 mL Erlenmeyer to contain 5.5% solids in deionized water (18.2 MΩ, Hydro Service and Supplies. Gaithersburg, Md.). The media was autoclaved (121° C. 15 min), cooled, and inoculated with 1 mL (0.5 mL culture+0.5 mL glycerol, 40%; frozen at −78° C.) of Weissella viridescens NRRL B-1951 (test strain). The culture was incubated at 31° C. overnight (15 Hr).\nThe next day, stock solutions of either nisin A or Z were prepared in deionized water to contain 31.3 and 33.7 μg/g of each peptide.\n100 g MRS media was prepared to contain 5.5% solids. Two sets (one set each for nisin A and nisin Z) of eight Hach-type tubes (Kimble Chase 45066-16100) were prepared. Within each set, in order was added 5.00, 4.95, 4.90, 4.75, 4.50, 4.00, 3.50 and 3.00 g MRS media. The tubes were sealed and autoclaved.\nTo each tube was added, of the appropriate nisin stock, 0.00, 0.05, 0.10, 0.25, 0.50, 1.00, 1.50, and 2.00 g. Each tube was inoculated with 0.25 g of late-log W. viridescens NRRL B-1951 culture. The tubes were sealed and the absorbance at 600 nm was quickly measured (Hach DR900). The tubes were segregated by set and incubated at 31° C. overnight (15 Hr).\nEach tube was thoroughly mixed to suspend settled cells and the absorbance was measured again at 600 nm. The final absorbance values for each sample were corrected for their respective background (taken just after inoculation, scattered light from added cells). The corrected absorption values were a measure of W. viridescens growth.\nAs indicated above, the absorbance of the culture was measured again at 600 nm as a measure of W. viridescens growth, and the absorbance values for each sample were corrected for their respective background. These corrected absorption values plotted against nisin concentration and minimum inhibiting concentration approximated via regression.\nThe results were fit via four parameter logistic regression (4PLR), combined into a continuous function with a second assay set (0.65-9.99 μg/g), and are shown in FIG. 11A."}, "[3]": {"system": "head/neck tumors", "settings": "mouse, in vivo; cited from earlier work"}}}
{"sequence": "MSTKDFNLDLVSVSKKDSGASPRITSISLCTPGCKTGALMGCNMKTATCNCSIHVSN [nisin Z]", "values": [{"measurement": "Maltotriose in fermentation media", "setting": "[1]; tube Z2, nisin Z 0.34 μg/g", "result": 0.282, "unit": "%/brix"}, {"measurement": "ethanol in fermentation media", "setting": "[1]; tube Z2, nisin Z 0.34 μg/g", "result": 0.057, "unit": "%/brix"}, {"measurement": "formic acid in fermentation media", "setting": "[1]; tube Z2, nisin Z 0.34 μg/g", "result": 0.303, "unit": "%/brix"}, {"measurement": "fructose in fermentation media", "setting": "[1]; tube Z2, nisin Z 0.34 μg/g", "result": 0.000, "unit": "%/brix"}, {"measurement": "glucose in fermentation media", "setting": "[1]; tube Z2, nisin Z 0.34 μg/g", "result": 22.988, "unit": "%/brix"}, {"measurement": "glycerol in fermentation media", "setting": "[1]; tube Z2, nisin Z 0.34 μg/g", "result": 0.343, "unit": "%/brix"}, {"measurement": "lactic acid in fermentation media", "setting": "[1]; tube Z2, nisin Z 0.34 μg/g", "result": 6.742, "unit": "%/brix"}, {"measurement": "maltose in fermentation media", "setting": "[1]; tube Z2, nisin Z 0.34 μg/g", "result": 0.722, "unit": "%/brix"}, {"measurement": "acetic acid in fermentation media", "setting": "[1]; tube Z2, nisin Z 0.34 μg/g", "result": 8.273, "unit": "%/brix"}, {"measurement": "Maltotriose in fermentation media", "setting": "[1]; tube Z4, nisin Z 1.58 μg/g", "result": 0.265, "unit": "%/brix"}, {"measurement": "ethanol in fermentation media", "setting": "[1]; tube Z4, nisin Z 1.58 μg/g", "result": 0.083, "unit": "%/brix"}, {"measurement": "formic acid in fermentation media", "setting": "[1]; tube Z4, nisin Z 1.58 μg/g", "result": 0.309, "unit": "%/brix"}, {"measurement": "fructose in fermentation media", "setting": "[1]; tube Z4, nisin Z 1.58 μg/g", "result": 0.000, "unit": "%/brix"}, {"measurement": "glucose in fermentation media", "setting": "[1]; tube Z4, nisin Z 1.58 μg/g", "result": 24.153, "unit": "%/brix"}, {"measurement": "glycerol in fermentation media", "setting": "[1]; tube Z4, nisin Z 1.58 μg/g", "result": 0.337, "unit": "%/brix"}, {"measurement": "lactic acid in fermentation media", "setting": "[1]; tube Z4, nisin Z 1.58 μg/g", "result": 5.081, "unit": "%/brix"}, {"measurement": "maltose in fermentation media", "setting": "[1]; tube Z4, nisin Z 1.58 μg/g", "result": 1.007, "unit": "%/brix"}, {"measurement": "acetic acid in fermentation media", "setting": "[1]; tube Z4, nisin Z 1.58 μg/g", "result": 8.247, "unit": "%/brix"}, {"measurement": "Maltotriose in fermentation media", "setting": "[1]; tube Z5, nisin Z 3.19 μg/g", "result": 0.311, "unit": "%/brix"}, {"measurement": "ethanol in fermentation media", "setting": "[1]; tube Z5, nisin Z 3.19 μg/g", "result": 0.067, "unit": "%/brix"}, {"measurement": "formic acid in fermentation media", "setting": "[1]; tube Z5, nisin Z 3.19 μg/g", "result": 0.281, "unit": "%/brix"}, {"measurement": "fructose in fermentation media", "setting": "[1]; tube Z5, nisin Z 3.19 μg/g", "result": 0.000, "unit": "%/brix"}, {"measurement": "glucose in fermentation media", "setting": "[1]; tube Z5, nisin Z 3.19 μg/g", "result": 24.698, "unit": "%/brix"}, {"measurement": "glycerol in fermentation media", "setting": "[1]; tube Z5, nisin Z 3.19 μg/g", "result": 0.321, "unit": "%/brix"}, {"measurement": "lactic acid in fermentation media", "setting": "[1]; tube Z5, nisin Z 3.19 μg/g", "result": 2.995, "unit": "%/brix"}, {"measurement": "maltose in fermentation media", "setting": "[1]; tube Z5, nisin Z 3.19 μg/g", "result": 0.750, "unit": "%/brix"}, {"measurement": "acetic acid in fermentation media", "setting": "[1]; tube Z5, nisin Z 3.19 μg/g", "result": 8.026, "unit": "%/brix"}, {"measurement": "Maltotriose in fermentation media", "setting": "[1]; tube Z6, nisin Z 6.31 μg/g", "result": 0.247, "unit": "%/brix"}, {"measurement": "ethanol in fermentation media", "setting": "[1]; tube Z6, nisin Z 6.31 μg/g", "result": 0.059, "unit": "%/brix"}, {"measurement": "formic acid in fermentation media", "setting": "[1]; tube Z6, nisin Z 6.31 μg/g", "result": 0.267, "unit": "%/brix"}, {"measurement": "fructose in fermentation media", "setting": "[1]; tube Z6, nisin Z 6.31 μg/g", "result": 0.000, "unit": "%/brix"}, {"measurement": "glucose in fermentation media", "setting": "[1]; tube Z6, nisin Z 6.31 μg/g", "result": 25.353, "unit": "%/brix"}, {"measurement": "glycerol in fermentation media", "setting": "[1]; tube Z6, nisin Z 6.31 μg/g", "result": 0.320, "unit": "%/brix"}, {"measurement": "lactic acid in fermentation media", "setting": "[1]; tube Z6, nisin Z 6.31 μg/g", "result": 1.351, "unit": "%/brix"}, {"measurement": "maltose in fermentation media", "setting": "[1]; tube Z6, nisin Z 6.31 μg/g", "result": 0.726, "unit": "%/brix"}, {"measurement": "acetic acid in fermentation media", "setting": "[1]; tube Z6, nisin Z 6.31 μg/g", "result": 7.969, "unit": "%/brix"}, {"measurement": "Maltotriose in fermentation media", "setting": "[1]; tube Z7, nisin Z 9.54 μg/g", "result": 0.291, "unit": "%/brix"}, {"measurement": "ethanol in fermentation media", "setting": "[1]; tube Z7, nisin Z 9.54 μg/g", "result": 0.065, "unit": "%/brix"}, {"measurement": "formic acid in fermentation media", "setting": "[1]; tube Z7, nisin Z 9.54 μg/g", "result": 0.263, "unit": "%/brix"}, {"measurement": "fructose in fermentation media", "setting": "[1]; tube Z7, nisin Z 9.54 μg/g", "result": 0.000, "unit": "%/brix"}, {"measurement": "glucose in fermentation media", "setting": "[1]; tube Z7, nisin Z 9.54 μg/g", "result": 25.501, "unit": "%/brix"}, {"measurement": "glycerol in fermentation media", "setting": "[1]; tube Z7, nisin Z 9.54 μg/g", "result": 0.335, "unit": "%/brix"}, {"measurement": "lactic acid in fermentation media", "setting": "[1]; tube Z7, nisin Z 9.54 μg/g", "result": 1.431, "unit": "%/brix"}, {"measurement": "maltose in fermentation media", "setting": "[1]; tube Z7, nisin Z 9.54 μg/g", "result": 0.895, "unit": "%/brix"}, {"measurement": "acetic acid in fermentation media", "setting": "[1]; tube Z7, nisin Z 9.54 μg/g", "result": 8.026, "unit": "%/brix"}, {"measurement": "Maltotriose in fermentation media", "setting": "[1]; tube Z8, nisin Z 12.61 μg/g", "result": 0.318, "unit": "%/brix"}, {"measurement": "ethanol in fermentation media", "setting": "[1]; tube Z8, nisin Z 12.61 μg/g", "result": 0.148, "unit": "%/brix"}, {"measurement": "formic acid in fermentation media", "setting": "[1]; tube Z8, nisin Z 12.61 μg/g", "result": 0.299, "unit": "%/brix"}, {"measurement": "fructose in fermentation media", "setting": "[1]; tube Z8, nisin Z 12.61 μg/g", "result": 0.000, "unit": "%/brix"}, {"measurement": "glucose in fermentation media", "setting": "[1]; tube Z8, nisin Z 12.61 μg/g", "result": 25.740, "unit": "%/brix"}, {"measurement": "glycerol in fermentation media", "setting": "[1]; tube Z8, nisin Z 12.61 μg/g", "result": 0.346, "unit": "%/brix"}, {"measurement": "lactic acid in fermentation media", "setting": "[1]; tube Z8, nisin Z 12.61 μg/g", "result": 1.652, "unit": "%/brix"}, {"measurement": "maltose in fermentation media", "setting": "[1]; tube Z8, nisin Z 12.61 μg/g", "result": 0.876, "unit": "%/brix"}, {"measurement": "acetic acid in fermentation media", "setting": "[1]; tube Z8, nisin Z 12.61 μg/g", "result": 8.261, "unit": "%/brix"}, {"measurement": "91516 ABS 610f", "setting": "[2]; tube Z2, nisin Z 0.34 μg/g", "result": 1.618}, {"measurement": "Corrected ABS 610rs", "setting": "[2]; tube Z2, nisin Z 0.34 μg/g", "result": 1.146}, {"measurement": "91516 ABS 610f", "setting": "[2]; tube Z3, nisin Z 0.77 μg/g", "result": 1.526}, {"measurement": "Corrected ABS 610rs", "setting": "[2]; tube Z3, nisin Z 0.77 μg/g", "result": 1.062}, {"measurement": "91516 ABS 610f", "setting": "[2]; tube Z4, nisin Z 1.58 μg/g", "result": 1.296}, {"measurement": "Corrected ABS 610rs", "setting": "[2]; tube Z4, nisin Z 1.58 μg/g", "result": 0.841}, {"measurement": "91516 ABS 610f", "setting": "[2]; tube Z5, nisin Z 3.19 μg/g", "result": 0.801}, {"measurement": "Corrected ABS 610rs", "setting": "[2]; tube Z5, nisin Z 3.19 μg/g", "result": 0.359}, {"measurement": "91516 ABS 610f", "setting": "[2]; tube Z6, nisin Z 6.31 μg/g", "result": 0.426}, {"measurement": "Corrected ABS 610rs", "setting": "[2]; tube Z6, nisin Z 6.31 μg/g", "result": 0.003}, {"measurement": "91516 ABS 610f", "setting": "[2]; tube Z7, nisin Z 9.54 μg/g", "result": 0.384}, {"measurement": "Corrected ABS 610rs", "setting": "[2]; tube Z7, nisin Z 9.54 μg/g", "result": 0.001}, {"measurement": "91516 ABS 610f", "setting": "[2]; tube Z8, nisin Z 12.61 μg/g", "result": 0.386}, {"measurement": "Corrected ABS 610rs", "setting": "[2]; tube Z8, nisin Z 12.61 μg/g", "result": 0.001}, {"measurement": "effect on tumors (in words)", "setting": "[3]", "result": "can reduce tumorigenesis in mice"}]}
